Results: patent US20170143701A1, “CARBOHYDRATE METABOLISM-AMELIORATING AGENT” (SUNTORY HOLDINGS LIMITED, priority 2014, published 2017)

Test system: NCI-H716 cells
Assay: In vitro GLP-1 secretion-accelerating action: amount of active GLP-1 secreted (ELISA)
Assay type: cell-based
Details: 1 hour; for Significant difference (p < 0.05) vs control group, amount of active GLP-1 secreted: 10 mM, Student's t-test; for Amount of active GLP-1 secreted (relative value to control group as 100), average value: cyclic dipeptide 10 mM with 10 μM Sitagliptin phosphate, group with no cyclic dipeptide = 100
Procedure: Among the cyclic dipeptides, 92 highly water-soluble cyclic dipeptides were used in the following experiment. In each well of a Poly-L-Lysine 96-well plate, NCI-H716 cells suspended in 100 μL of a DMEM (with 10% FBS, 2 mM glutamine, and 1% antibiotics added in advance) were seeded at 0.5×10^5 cells/well, and cultured in a CO2 incubator (manufactured by ESPEC CORP.) for 48 hours. After washing with PBS(+), 100 μL of a PBS(+) solution with each cyclic dipeptide at a final concentration of 10 mM and 10 μM of Sitagliptin phosphate added therein was added to the cells. After 1 hour, the resultant solution was recovered, and the amount of active GLP-1 in the solution was measured by using the ELISA kit. In the analysis, the amount of active GLP-1 for a group with no cyclic dipeptide added was defined as 100, and relative values thereto were used.

Structure (SMILES)	Significant difference (p < 0.05) vs control group, amount of active GLP-1 secreted (Table 3, Experiment 3)	Amount of active GLP-1 secreted (relative value to control group as 100), average value (Table 3, Experiment 3)	further results
NCCCC[C@@H]1NC(=O)[C@H](CCC(=O)O)NC1=O [compound 97, Cyclo(Glu-Lys)]	No	66	–
C[C@@H]1NC(=O)[C@H](CC(N)=O)NC1=O [compound 124, Cyclo(Asn-Ala)]	No	116	–
NC(=O)CC[C@@H]1NC(=O)CNC1=O [compound 126, cyclo-glutaminyl-glycine]	Yes	210	–
C[C@@H]1NC(=O)[C@H](C)NC1=O [compound 3, Cyclo(Ala-Ala)]	–	–	Significant difference (p < 0.05) vs control group, amount of active GLP-1 secreted (Table 1, Experiment 1): No; Amount of active GLP-1 secreted (relative value to control group as 100), average value (Table 1, Experiment 1): 95
O=C(O)CCC1NC(=O)C(CO)NC1=O (centres unmarked) [compound 192, cyclo-seryl-glutamic acid]	–	–	Significant difference (p < 0.05) vs control group, amount of active GLP-1 secreted (Table 4, Experiment 4): Yes
O=C1NC(Cc2cnc[nH]2)C(=O)NC1Cc1cnc[nH]1 (centres unmarked) [compound 107, cyclo-histidyl-histidine]	Yes	182	–
NCCCCC1NC(=O)C(CC(=O)O)NC1=O (centres unmarked) [compound 100, Cyclo(Asp-Lys)]	No	116	–
NC(=O)C[C@@H]1NC(=O)[C@H](CCC(=O)O)NC1=O [compound 129, Cyclo(Asn-Glu)]	No	118	–
O=C(O)CC1NC(=O)C(Cc2cnc[nH]2)NC1=O (centres unmarked) [compound 110, cyclo-aspartyl-histidine]	Yes	340	–
O=C1CNC(=O)[C@H](CO)N1 [compound 154, Cyclo(Ser-Gly)]	No	116	–
O=C1N[C@@H](Cc2ccccc2)C(=O)N[C@H]1CO [compound 7, Cyclo(Phe-Ser)]	–	–	Significant difference (p < 0.05) vs control group, amount of active GLP-1 secreted (Table 1, Experiment 1): No; Amount of active GLP-1 secreted (relative value to control group as 100), average value (Table 1, Experiment 1): 106
CC(O)C1NC(=O)C(CCCCN)NC1=O (centres unmarked) [compound 143, Cyclo(Thr-Lys)]	No	105	–
NC(N)=NCCC[C@@H]1NC(=O)[C@H](CO)NC1=O [compound 159, cyclo-arginyl-serine]	Yes	135	–
NC(=O)CC1NC(=O)C2CCCN2C1=O (centres unmarked) [compound 201, cyclo-asparaginyl-proline]	–	–	Significant difference (p < 0.05) vs control group, amount of active GLP-1 secreted (Table 4, Experiment 4): Yes; Amount of active GLP-1 secreted (relative value to control group as 100), average value (Table 4, Experiment 4): 430
CSCC[C@@H]1NC(=O)[C@H](CCC(N)=O)NC1=O [compound 186, cyclo-glutaminyl-methionine]	–	–	Significant difference (p < 0.05) vs control group, amount of active GLP-1 secreted (Table 4, Experiment 4): Yes; Amount of active GLP-1 secreted (relative value to control group as 100), average value (Table 4, Experiment 4): 191
N=C(N)NCCC[C@@H]1NC(=O)[C@H](CC(N)=O)NC1=O [compound 197, cyclo-asparaginyl-arginine]	–	–	Significant difference (p < 0.05) vs control group, amount of active GLP-1 secreted (Table 4, Experiment 4): Yes; Amount of active GLP-1 secreted (relative value to control group as 100), average value (Table 4, Experiment 4): 359
C[C@@H]1NC(=O)[C@H](CCCCN)NC1=O [compound 69, Cyclo(Ala-Lys)]	–	–	Significant difference (p < 0.05) vs control group, amount of active GLP-1 secreted (Table 2, Experiment 2): No; Amount of active GLP-1 secreted (relative value to control group as 100), average value (Table 2, Experiment 2): 161
CC(C)C[C@@H]1NC(=O)[C@@H]2CCCN2C1=O [compound 19, cyclo-leucyl-proline]	–	–	Significant difference (p < 0.05) vs control group, amount of active GLP-1 secreted (Table 1, Experiment 1): Yes; Amount of active GLP-1 secreted (relative value to control group as 100), average value (Table 1, Experiment 1): 173
O=C1NCC(=O)N2CC(O)CC12 (centres unmarked) [compound 73, Cyclo(Hyp-Gly)]	–	–	Significant difference (p < 0.05) vs control group, amount of active GLP-1 secreted (Table 2, Experiment 2): No; Amount of active GLP-1 secreted (relative value to control group as 100), average value (Table 2, Experiment 2): 121
C[C@H](O)[C@@H]1NC(=O)[C@H](CCC(N)=O)NC1=O [compound 167, Cyclo(Gln-Thr)]	No	156	–
O=C1C2CC(O)CN2C(=O)C2CCCN12 (centres unmarked) [compound 74, Cyclo(Hyp-Pro)]	–	–	Significant difference (p < 0.05) vs control group, amount of active GLP-1 secreted (Table 2, Experiment 2): No; Amount of active GLP-1 secreted (relative value to control group as 100), average value (Table 2, Experiment 2): 115
